From paper PMC8657792, “Interaction Profiles of Central Nervous System Active Drugs at Human Organic Cation Transporters 1–3 and Human Plasma Membrane Monoamine Transporter” (International Journal of Molecular Sciences, 2021)
Like-named read-outs stand apart in the source and are kept apart here.

Columns and labels:
[1] = biological target: T1, hPMAT (Homo sapiens, UniProt Q7RTT9); assay: [3H]MPP+ uptake inhibition assay, HEK293 cells stably expressing hPMAT; assay type: cell-based; settings: for Effect on substrate uptake by hPMAT (in words): [3H]MPP+ uptake, HEK293 hPMAT
T1 construct: expressed in transfected cells
T1 sequence (Q7RTT9 1-530): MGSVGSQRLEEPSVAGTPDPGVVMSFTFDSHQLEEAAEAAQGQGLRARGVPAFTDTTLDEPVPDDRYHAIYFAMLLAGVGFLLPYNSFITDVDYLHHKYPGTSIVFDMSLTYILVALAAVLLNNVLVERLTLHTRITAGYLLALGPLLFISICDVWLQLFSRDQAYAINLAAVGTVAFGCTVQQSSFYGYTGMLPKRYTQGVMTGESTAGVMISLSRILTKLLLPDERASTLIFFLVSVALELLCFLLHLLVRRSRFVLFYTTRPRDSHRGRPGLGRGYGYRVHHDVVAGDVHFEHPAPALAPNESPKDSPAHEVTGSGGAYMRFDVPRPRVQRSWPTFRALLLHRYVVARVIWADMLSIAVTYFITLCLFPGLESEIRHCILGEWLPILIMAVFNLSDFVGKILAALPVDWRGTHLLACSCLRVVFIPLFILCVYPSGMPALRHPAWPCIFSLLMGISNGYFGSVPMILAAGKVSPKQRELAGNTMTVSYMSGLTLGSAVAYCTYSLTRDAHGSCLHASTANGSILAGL
Experimental: (§1) HEK293 cells were transfected with a plasmid, encoding the transporter of interest and an N-terminal YFP-tag, carried out using jetPRIME ^© (Polyplus Transfection; (VWR International GmbH, Vienna, Austria)) reagent (for a 10 cm dish with 1–2 × 10^6 cells in 10 mL serum containing medium at 60–80% confluency: 500 μ L jetPRIME ^© buffer, 10 μ g DNA and 20 μ L jetPRIME ^© reagent) and selection pressure maintained for two weeks [2, 54, 55]. Subsequently, 500,000 cells were FACS-sorted (fluorescence-activated cell sorting) according to expression level to establish cell lines stably expressing the protein of interest. […] For uptake inhibition assays, cells were cultured at a subconfluent (80–90% density) state in high-glucose Dulbecco’s Modified Eagle Medium (DMEM ), enriched with 10% heat-inactivated Fetal Bovine Serum (FBS) and penicillin/streptomycin (PS; 100 U × 100 mL ^−1 , each). Selection pressure was maintained by the addition of geneticin (50 mg × mL ^−1 ) at 37 ^∘ C and 5% CO 2 in a humidified incubator. At a density of 60,000 cells per well, HEK293 cells expressing the respective transporter were seeded onto poly-D-lysine-coated wells 24 h prior to uptake inhibition experiments in a final volume of 200 μ L per well.
(§2) Prior to the addition of the respective compounds, DMEM was removed from all wells and replaced with 200 μ L of Krebs-HEPES-buffer (KHB; 10 mM HEPES, 120 mM NaCl, 3 mM KCl, 2 mM CaCl 2 , 2 mM MgSO 4 and 20 mM D-glucose, pH adjusted to 7.3) at room temperature. Cells were exposed to a pre-incubation solution containing the compound of interest in the respective concentration (dissolved in Krebs-HEPES-buffer) for 10 min with a total volume of 50 μ L, which was then replaced with a 50 μ L uptake solution containing 0.05 μ M of tritiated 1-methyl-4-phenylpyridinium ([ ^3 H]MPP ^+ ) as substrate, and the compound of interest in respective concentrations, for 10 minutes each. Finally, uptake was terminated by washing with 200 μ L of ice-cold (4 ^∘ C) KHB, after which cells were lysed with 200 μ L of 1% sodium dodecyl sulphate (SDS). After transferring the solution of each well into 6 mL counting vials containing 2 mL of scintillation cocktail, the vials were measured with a beta-scintillation counter for quantification of the uptake of tritiated substrate. […] To obtain specific data, non-specific uptake was assessed in the presence of 100 μ M D22 and subtracted from the total data. The 100% values were defined as uptake in the absence of a tested substance, defining maximal uptake capacity. Inhibitions of the compound of interest were described as a percentage of the maximal uptake capacity.
(§3) Half-maximal inhibitory concentration ( IC50 ) values of each substance were calculated and plotted using GraphPad Prism 8.4.3 (GraphPad Software Inc., San Diego, CA, USA). IC50 was determined by non-linear regression, solving the equation Y=Bottom+(Top−Bottom)/(1+10^X−LogEC50) . […] All data stem from a minimum of three separate experiments (n≥ 3) executed in triplicates and are shown as mean ± SD.

[2] = biological target: T2, hOCT1 (Homo sapiens, UniProt O15245); assay: [3H]MPP+ uptake inhibition assay, HEK293 cells stably expressing hOCT1; assay type: cell-based; settings: for Effect on substrate uptake by hOCT1 (in words): [3H]MPP+ uptake, HEK293 hOCT1
T2 construct: expressed in transfected cells
T2 sequence (O15245 1-554): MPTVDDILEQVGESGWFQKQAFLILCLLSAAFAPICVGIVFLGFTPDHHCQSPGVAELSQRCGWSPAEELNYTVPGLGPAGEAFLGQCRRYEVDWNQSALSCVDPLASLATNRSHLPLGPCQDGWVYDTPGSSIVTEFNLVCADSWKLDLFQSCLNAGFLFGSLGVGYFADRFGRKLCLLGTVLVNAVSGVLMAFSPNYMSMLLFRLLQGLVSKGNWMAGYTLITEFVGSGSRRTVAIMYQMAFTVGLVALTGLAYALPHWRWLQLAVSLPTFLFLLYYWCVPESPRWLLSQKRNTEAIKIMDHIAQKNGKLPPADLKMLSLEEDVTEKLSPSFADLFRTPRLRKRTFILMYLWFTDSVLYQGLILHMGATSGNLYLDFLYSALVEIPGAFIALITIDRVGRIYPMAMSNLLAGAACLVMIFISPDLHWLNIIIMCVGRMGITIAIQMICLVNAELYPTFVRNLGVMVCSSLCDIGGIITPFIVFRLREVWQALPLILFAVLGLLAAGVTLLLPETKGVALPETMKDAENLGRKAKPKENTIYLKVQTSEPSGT
Experimental: as §1, §2, §3

[3] = biological target: T3, hOCT2 (Homo sapiens, UniProt O15244); assay: [3H]MPP+ uptake inhibition assay, HEK293 cells stably expressing hOCT2; assay type: cell-based; settings: for Effect on substrate uptake by hOCT2 (in words): [3H]MPP+ uptake, HEK293 hOCT2
T3 construct: expressed in transfected cells
T3 sequence (O15244 1-555): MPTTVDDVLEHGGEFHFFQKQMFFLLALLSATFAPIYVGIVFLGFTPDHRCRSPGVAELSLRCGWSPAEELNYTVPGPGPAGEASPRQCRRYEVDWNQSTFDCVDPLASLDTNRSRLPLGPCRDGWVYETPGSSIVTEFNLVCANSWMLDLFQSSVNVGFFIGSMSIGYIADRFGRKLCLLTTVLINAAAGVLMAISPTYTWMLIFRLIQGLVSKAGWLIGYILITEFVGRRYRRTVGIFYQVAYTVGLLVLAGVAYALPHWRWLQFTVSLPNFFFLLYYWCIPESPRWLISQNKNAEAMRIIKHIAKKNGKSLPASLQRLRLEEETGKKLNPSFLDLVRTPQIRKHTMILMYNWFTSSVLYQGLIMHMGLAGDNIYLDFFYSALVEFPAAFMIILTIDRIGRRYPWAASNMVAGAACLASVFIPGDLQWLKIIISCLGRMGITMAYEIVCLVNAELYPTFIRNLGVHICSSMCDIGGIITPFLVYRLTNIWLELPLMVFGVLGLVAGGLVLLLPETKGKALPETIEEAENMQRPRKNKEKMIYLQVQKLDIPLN
Experimental: as §1, §2, §3

[4] = biological target: T2, hOCT1; settings: Table S1, supplementary reference list, cited from earlier work; for IC50: read-out: IC50 literature hOCT1; for Ki: read-out: IC50 literature hOCT1 (Ki), Ki values
[5] = biological target: T4, hOCT3 (Homo sapiens, UniProt O75751); assay: [3H]MPP+ uptake inhibition assay, HEK293 cells stably expressing hOCT3; assay type: cell-based; settings: for Effect on substrate uptake by hOCT3 (in words): [3H]MPP+ uptake, HEK293 hOCT3
T4 construct: expressed in transfected cells
T4 sequence (O75751 1-556): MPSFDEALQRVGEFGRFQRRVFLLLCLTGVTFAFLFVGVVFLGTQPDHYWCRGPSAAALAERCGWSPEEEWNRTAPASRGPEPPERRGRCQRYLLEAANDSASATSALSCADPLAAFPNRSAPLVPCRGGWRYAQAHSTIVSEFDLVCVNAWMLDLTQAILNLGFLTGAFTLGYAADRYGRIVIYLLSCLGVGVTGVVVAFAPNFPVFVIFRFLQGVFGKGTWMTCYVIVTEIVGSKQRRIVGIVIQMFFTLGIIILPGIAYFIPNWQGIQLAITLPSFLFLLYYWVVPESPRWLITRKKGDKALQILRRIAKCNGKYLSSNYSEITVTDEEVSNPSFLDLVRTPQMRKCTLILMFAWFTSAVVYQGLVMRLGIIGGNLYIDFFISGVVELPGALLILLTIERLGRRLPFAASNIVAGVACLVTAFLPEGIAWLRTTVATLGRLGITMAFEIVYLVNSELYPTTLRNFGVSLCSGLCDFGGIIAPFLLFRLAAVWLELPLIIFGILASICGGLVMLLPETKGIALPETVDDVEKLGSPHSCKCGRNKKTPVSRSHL
Experimental: as §1, §2, §3

[6] = biological target: T4, hOCT3; settings: Table S1, supplementary reference list, cited from earlier work
[7] = biological target: T3, hOCT2; settings: Table S1, supplementary reference list, cited from earlier work; for Ki: read-out: IC50 literature hOCT2 (Ki), Ki values
[8] = HEK293 stably expressing hPMAT, 0.05 μM [3H]MPP+, 10 min pre-incubation, 10 min uptake, brackets in Table S1 = 95%-CI, n.s. = non-significant, read-out: IC50 hPMAT (inhibitory potency, [3H]MPP+ uptake)
[9] = HEK293 stably expressing hOCT1, 0.05 μM [3H]MPP+, 10 min pre-incubation, 10 min uptake, brackets in Table S1 = 95%-CI, n.s. = non-significant, read-out: IC50 hOCT1 (inhibitory potency, [3H]MPP+ uptake)
[10] = HEK293 stably expressing hOCT2, 0.05 μM [3H]MPP+, 10 min pre-incubation, 10 min uptake, brackets in Table S1 = 95%-CI, n.s. = non-significant, read-out: IC50 hOCT2 (inhibitory potency, [3H]MPP+ uptake)
[11] = HEK293 stably expressing hOCT3, 0.05 μM [3H]MPP+, 10 min pre-incubation, 10 min uptake, brackets in Table S1 = 95%-CI, n.s. = non-significant
[12] = HEK293 stably expressing hPMAT, 0.05 μM [3H]MPP+, 10 min pre-incubation, 10 min uptake, brackets in Table S1 = 95%-CI, n.s. = non-significant
[13] = HEK293 stably expressing hOCT1, 0.05 μM [3H]MPP+, 10 min pre-incubation, 10 min uptake, brackets in Table S1 = 95%-CI, n.s. = non-significant
[14] = HEK293 stably expressing hOCT2, 0.05 μM [3H]MPP+, 10 min pre-incubation, 10 min uptake, brackets in Table S1 = 95%-CI, n.s. = non-significant

| SMILES | Effect on substrate uptake by hPMAT (in words) [1] | IC50 [2] [µM] | IC50 hOCT3 (inhibitory potency, [3H]MPP+ uptake) [5, 11] | Effect on substrate uptake by hOCT3 (in words) [5] | IC50 [3] [µM] | IC50 hPMAT (inhibitory potency, [3H]MPP+ uptake) [1, 12] | other results |
| --- | --- | --- | --- | --- | --- | --- | --- |
| CN(C)CCC[C@]1(c2ccc(F)cc2)OCc2cc(C#N)ccc21 [R-Citalopram, R-citalopram] | – | – | – | – | – | – | IC50 [1, 8]: 58.3 µM; IC50 [2, 9]: 5.11 µM; IC50 [3, 10]: 46.6 µM |
| COc1cccc(C2(O)CCCCC2CN(C)C)c1 (centres unmarked) [Tramadol, tramadol] | fails to fully inhibit | 5.6 | n.s. | No interaction | 64.1 | – | IC50 [1]: 74.2 µM; IC50 [4]: 30 µM; Effect on substrate uptake by hOCT2 (in words) [3]: fails to fully inhibit |
| NC(=O)C[S+]([O-])C(c1ccccc1)c1ccccc1 (centres unmarked) [Modafinil, modafinil] | did not interact | – | n.s. | did not interact | – | n.s. | IC50 hOCT1 (inhibitory potency, [3H]MPP+ uptake) [2, 13]: n.s.; Effect on substrate uptake by hOCT1 (in words) [2]: did not interact; IC50 hOCT2 (inhibitory potency, [3H]MPP+ uptake) [3, 14]: n.s.; Effect on substrate uptake by hOCT2 (in words) [3]: did not interact |
| CNC1(c2ccccc2Cl)CCCCC1=O (centres unmarked) [Ketamine, ketamine] | – | 23.5 | – | – | 12.5 | – | IC50 [1]: 135 µM; IC50 literature hOCT3 (Km) ([6]; Km): 52.9 ± 15.0 µM; Ki ([6]; read-out: IC50 literature hOCT3 (Ki), Ki values): 226 ± 65 µM; IC50 ([6]; read-out: IC50 literature hOCT3, ASP+ as substrate): 440 µM; IC50 literature hOCT2 (Km) ([7]; Km): 33.5 ± 20.3 µM; Ki [7]: 22.7 ± 6.3 µM; IC50 literature hOCT1 (Km) ([4]; Km): 73.9 ± 15.2 µM; Ki [4]: 115 ± 43.7 µM; IC50 [5]: 1030 µM |
| CN(C)CCC[C@@]1(c2ccc(F)cc2)OCc2cc(C#N)ccc21 [S-Citalopram, S-citalopram] | – | – | – | – | – | – | IC50 [1, 8]: 160 µM; IC50 [2, 9]: 7.15 µM; IC50 [3, 10]: 59.9 µM |
| CCC1(c2ccccc2)C(=O)NC(=O)NC1=O [Phenobarbital, phenobarbital] | not interacting | – | n.s. | not interacting | – | – | IC50 [1]: 1030 µM; IC50 hOCT1 (inhibitory potency, [3H]MPP+ uptake) [2, 13]: n.s.; Effect on substrate uptake by hOCT1 (in words) [2]: increased uptake of substrate; IC50 hOCT2 (inhibitory potency, [3H]MPP+ uptake) [3, 14]: n.s.; Effect on substrate uptake by hOCT2 (in words) [3]: increased uptake of substrate |
| CCC[C@H](C(=O)c1ccccc1)N1CCCC1 [R- α -PVP, R- α -pyrrolidinovalerophenone] | increased uptake of substrate | 2.15 | – | – | 13.1 | n.s. | IC50 [5]: 1020 µM |
| CN(C)CCc1c[nH]c2cccc(O)c12 [Psilocin, psilocin] | did not inhibit | 63.5 | n.s. | did not inhibit | – | – | IC50 [1]: 698 µM; Effect on substrate uptake by hOCT1 (in words) [2]: did not inhibit; IC50 hOCT2 (inhibitory potency, [3H]MPP+ uptake) [3, 14]: n.s.; Effect on substrate uptake by hOCT2 (in words) [3]: did not inhibit |
| CNC1(c2ccccc2F)CCCCC1=O (centres unmarked) [2-Fluoro-deschloroketamine, 2-fluoro-deschloroketamine] | – | 14.1 | – | – | 19.2 | n.s. | IC50 [5]: 265 µM |
| COC(=O)[C@H]1[C@@H](OC(=O)c2ccccc2)C[C@@H]2CC[C@H]1N2C [Cocaine, cocaine] | – | 6.66 | n.s. | – | 27.8 | n.s. | Ki [7]: 113 ± 21 µM; Ki [4]: 85 ± 22 µM |
| CCN1/C(=C/c2ccc3ccccc3[n+]2CC)C=Cc2ccccc21 [Decynium-22] | – | – | – | – | – | – | IC50 [1, 8]: 0.35 µM; IC50 [2, 9]: 2.66 µM; IC50 ([5]; HEK293 stably expressing hOCT3, 0.05 μM [3H]MPP+, 10 min pre-incubation, 10 min uptake, brackets in Table S1 = 95%-CI, n.s. = non-significant, read-out: IC50 hOCT3 (inhibitory potency, [3H]MPP+ uptake)): 0.16 µM; IC50 [3, 10]: 4.56 µM |
| CCC[C@@H](C(=O)c1ccccc1)N1CCCC1 [S- α -PVP, S- α -pyrrolidinovalerophenone] | increased uptake of substrate | 1.07 | – | – | 15 | n.s | IC50 [5]: 457 µM |
| COC(=O)C(c1ccccc1)C1CCCCN1 (centres unmarked) [Methylphenidate, methylphenidate] | – | 0.36 | n.s. | – | 28.8 | n.s. | – |
| CN(C)C[C@H]1CCCC[C@]1(O)c1cccc(O)c1 [O-Desmethyltramadol, O-desmethyltramadol] | – | 24.2 | n.s. | No interaction | 372 | n.s. | IC50 [4]: 172 µM |
